Source: patent US20230085307A1, “PYRIDAZINONE COMPOUND AND HERBICIDE” (NISSAN CHEMICAL CORPORATION, priority 2019, published 2023)

Experiments:
rice flat sedge = test: Test Example 3: herbicidal effect by foliage application, Wagner pot (Table 18, symbol E); format: in vivo, rice flat sedge (Cyperus iria); settings: 320 g/ha
Outline: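 Plants were sown in alluvial soil held under 0.1–0.5 cm standing water and grown 14 days in a greenhouse at 25–30 °C. An emulsifiable formulation, water-diluted to the set dose, was then sprayed onto the foliage, and effects were scored three weeks later using previously defined criteria.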

velvetleaf [1] = test: Test Example 4: herbicidal effect by soil treatment (Table 19, symbol M); format: in vivo, velvetleaf (Abutilon theophrasti); settings: amount of applied herbicide 320 g/ha
Outline: (§1)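 Applied as a water-diluted emulsion, the compound was sprayed onto soil covering newly sown seeds. Evaluation came three weeks after application, in a greenhouse held at 25° C. to 30° C.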

Italian ryegrass [2] = test: Test Example 4: herbicidal effect by soil treatment (Table 19, symbol K); format: in vivo, Italian ryegrass (Lolium multiflorum); settings: amount of applied herbicide 320 g/ha
Outline: as §1

Japanese bulrush [3] = test: Test Example 2: herbicidal activity, application during weed generation under submerged conditions (Table 17, symbol B); format: in vivo, Japanese bulrush (Schoenoplectus juncoides); settings: AAH 320 g/ha; application during weed generation, submerged conditions
Outline: (§2)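 Steps: fill Wagner pots with alluvial soil; add water to give 4 cm depth; sow the species mixed; grow under glass at 25–30° C.; at 1–2 leaves apply water-diluted emulsion formulation to the water surface at a fixed herbicide amount; score after 3 weeks.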

windgrass = test: Test Example 5: herbicidal effect by foliage application, plastic box (Table 20, symbol L); format: in vivo, windgrass (Apera spica-venti); settings: foliage application, 320 g/ha, three weeks after application
Outline: (§3)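 Sow seeds spot-wise in sterilized diluvial soil; cover with ~1.5 cm soil. Grow 14 days in greenhouse, 25° C. to 30° C. Spray foliage with emulsion diluted to predetermined amount. Rate effect after 3 weeks.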

Italian ryegrass [4] = test: Test Example 5: herbicidal effect by foliage application, plastic box (Table 20, symbol K); format: in vivo, Italian ryegrass (Lolium multiflorum); settings: foliage application, 320 g/ha, three weeks after application
Outline: as §3

barnyard grass = test: Test Example 5: herbicidal effect by foliage application, plastic box (Table 20, symbol H); format: in vivo, barnyard grass (Echinochloa crus-galli); settings: foliage application, 320 g/ha, three weeks after application
Outline: as §3

late watergrass = test: Test Example 2: herbicidal activity, application during weed generation under submerged conditions (Table 17, symbol A); format: in vivo, late watergrass (Echinochloa oryzicola); settings: AAH 320 g/ha; application during weed generation, submerged conditions
Outline: as §2

persian speedwell = test: Test Example 4: herbicidal effect by soil treatment (Table 19, symbol R); format: in vivo, Persian speedwell (Veronica persica); settings: amount of applied herbicide 320 g/ha
Outline: as §1

lambsquarters [5] = test: Test Example 5: herbicidal effect by foliage application, plastic box (Table 20, symbol O); format: in vivo, lambsquarters (Chenopodium album); settings: foliage application, 320 g/ha, three weeks after application
Outline: as §3

velvetleaf [6] = test: Test Example 5: herbicidal effect by foliage application, plastic box (Table 20, symbol M); format: in vivo, velvetleaf (Abutilon theophrasti); settings: foliage application, 320 g/ha, three weeks after application
Outline: as §3

chickweed = test: Test Example 5: herbicidal effect by foliage application, plastic box (Table 20, symbol P); format: in vivo, common chickweed (Stellaria media); settings: foliage application, 320 g/ha, three weeks after application
Outline: as §3

lambsquarters [7] = test: Test Example 4: herbicidal effect by soil treatment (Table 19, symbol O); format: in vivo, lambsquarters (Chenopodium album); settings: amount of applied herbicide 320 g/ha
Outline: as §1

wild oat [8] = test: Test Example 4: herbicidal effect by soil treatment (Table 19, symbol I); format: in vivo, wild oat (Avena fatua); settings: amount of applied herbicide 320 g/ha
Outline: as §1

oval-leafed pondweed = test: Test Example 1: herbicidal activity, application before weed generation under submerged conditions (Table 16, symbol C); format: in vivo, oval-leafed pondweed (Monochoria vaginalis); settings: amount of applied herbicide 320 g/ha
Outline: (§4)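 Submerged Wagner pots (alluvial soil, 4 cm water) sown with weed seeds and planted with 2.5-leaf rice seedlings; emulsifiable concentrate diluted in water applied to water surface on sowing day. Held in greenhouse at 25-30 °C; injury scored 0-5 by herbicidal rate after three weeks.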

Japanese bulrush [9] = test: Test Example 1: herbicidal activity, application before weed generation under submerged conditions (Table 16, symbol B); format: in vivo, Japanese bulrush (Schoenoplectus juncoides); settings: amount of applied herbicide 320 g/ha
Outline: as §4

wild oat [10] = test: Test Example 5: herbicidal effect by foliage application, plastic box (Table 20, symbol I); format: in vivo, wild oat (Avena fatua); settings: foliage application, 320 g/ha, three weeks after application
Outline: as §3

## CCCCCOc1ccc2c(-c3c(O)c(C)nn(C)c3=O)c(-c3ccccc3OC)sc2c1 [3-108]
Rice flat sedge
  herbicidal effect on rice flat sedge (E): 1 (Herbicidal rate of 5% or more and less than 20%)
Velvetleaf [1]
  M: velvetleaf, herbicidal effect grade: 0 (Herbicidal rate of 5% or less (almost no effect))
Italian ryegrass [2]
  K: Italian ryegrass, herbicidal effect grade: 0 (Herbicidal rate of 5% or less (almost no effect))
Japanese bulrush [3]
  herbicidal effect rating, B: Japanese bulrush: 2 (Herbicidal rate of 20% or more and less than 40%)
windgrass
  L: windgrass, herbicidal effect grade: 0 (Herbicidal rate of 5% or less (almost no effect))
Italian ryegrass [4]
  K: Italian ryegrass, herbicidal effect grade: 0 (Herbicidal rate of 5% or less (almost no effect))
Barnyard grass
  H: barnyard grass, herbicidal effect grade: 0 (Herbicidal rate of 5% or less (almost no effect))
Late watergrass
  herbicidal effect rating, A: late watergrass: 2 (Herbicidal rate of 20% or more and less than 40%)
Persian speedwell
  R: persian speedwell, herbicidal effect grade: 0 (Herbicidal rate of 5% or less (almost no effect))
Lambsquarters [5]
  O: lambsquarters, herbicidal effect grade: 4 (Herbicidal rate of 70% or more and less than 90%)
Velvetleaf [6]
  M: velvetleaf, herbicidal effect grade: 2 (Herbicidal rate of 20% or more and less than 40%)
chickweed
  P: chickweed, herbicidal effect grade: 3 (Herbicidal rate of 40% or more and less than 70%)
Lambsquarters [7]
  O: lambsquarters, herbicidal effect grade: 4 (Herbicidal rate of 70% or more and less than 90%)
Wild oat [8]
  I: wild oat, herbicidal effect grade: 0 (Herbicidal rate of 5% or less (almost no effect))
oval-leafed pondweed
  Herbicidal effect, C: oval-leafed pondweed: 5 (Herbicidal rate of 90% or more (almost completely withered))
Japanese bulrush [9]
  Herbicidal effect, B: Japanese bulrush: 3 (Herbicidal rate of 40% or more and less than 70%)
Wild oat [10]
  I: wild oat, herbicidal effect grade: 0 (Herbicidal rate of 5% or less (almost no effect))

## COc1ccccc1-c1sc2cc(OC3CCCC3)ccc2c1-c1c(O)c(C)nn(C)c1=O [3-109]
Rice flat sedge
  herbicidal effect on rice flat sedge (E): 4 (Herbicidal rate of 70% or more and less than 90%)
Velvetleaf [1]
  M: velvetleaf, herbicidal effect grade: 5 (Herbicidal rate of 90% or more (almost completely withered))
Italian ryegrass [2]
  K: Italian ryegrass, herbicidal effect grade: 4 (Herbicidal rate of 70% or more and less than 90%)
Japanese bulrush [3]
  herbicidal effect rating, B: Japanese bulrush: 3 (Herbicidal rate of 40% or more and less than 70%)
windgrass
  L: windgrass, herbicidal effect grade: 4 (Herbicidal rate of 70% or more and less than 90%)
Italian ryegrass [4]
  K: Italian ryegrass, herbicidal effect grade: 4 (Herbicidal rate of 70% or more and less than 90%)
Barnyard grass
  H: barnyard grass, herbicidal effect grade: 4 (Herbicidal rate of 70% or more and less than 90%)
Late watergrass
  herbicidal effect rating, A: late watergrass: 0 (Herbicidal rate of 5% or less (almost no effect))
Persian speedwell
  R: persian speedwell, herbicidal effect grade: 4 (Herbicidal rate of 70% or more and less than 90%)
Lambsquarters [5]
  O: lambsquarters, herbicidal effect grade: 3 (Herbicidal rate of 40% or more and less than 70%)
Velvetleaf [6]
  M: velvetleaf, herbicidal effect grade: 4 (Herbicidal rate of 70% or more and less than 90%)
chickweed
  P: chickweed, herbicidal effect grade: 5 (Herbicidal rate of 90% or more (almost completely withered))
Lambsquarters [7]
  O: lambsquarters, herbicidal effect grade: 5 (Herbicidal rate of 90% or more (almost completely withered))
Wild oat [8]
  I: wild oat, herbicidal effect grade: 5 (Herbicidal rate of 90% or more (almost completely withered))
oval-leafed pondweed
  Herbicidal effect, C: oval-leafed pondweed: 5 (Herbicidal rate of 90% or more (almost completely withered))
Japanese bulrush [9]
  Herbicidal effect, B: Japanese bulrush: 5 (Herbicidal rate of 90% or more (almost completely withered))
Wild oat [10]
  I: wild oat, herbicidal effect grade: 0 (Herbicidal rate of 5% or less (almost no effect))
